The test system of one test is A2780 cells. Kind of test: Proliferation assay A2780 (Method 3). The class given is cell-based, human. The following applies: A2780, 4 days, crystal violet, read-out: Inhibition of A2780 cell proliferation IC50. How it is done: (§1) Cultivated tumour cells (HeLa, human cervical tumour cells, ATCC CCL-2; NCI-H460, human non-small cell lung carcinoma cells, ATCC HTB-177; A2780, human ovarian carcinoma cells, ECACC #93112519; DU 145, hormone-independent human prostate carcinoma cells, ATCC HTB-81; HeLa-MaTu-ADR, multidrug-resistant human cervical carcinoma cells, EPO-GmbH Berlin; Caco-2, human colorectal carcinoma cells, ATCC HTB-37; B16F10, mouse melanoma cells, ATCC CRL-6475) were plated at a density of 5,000 cells/well (DU145, HeLa-MaTu-ADR), 3,000 cells/well (NCI-H460, HeLa), 2,500 cells/well (A2780), 1,500 cells/well (Caco-2), or 1,000 cells/well (B16F10) in a 96-well multititer plate in 200 μL of their respective growth medium supplemented 10% fetal calf serum. After 24 hours, the cells of one plate (zero-point plate) were stained with crystal violet (see below), while the medium of the other plates was replaced by fresh culture medium (200 μl), to which the test substances were added in various concentrations (0 μM, as well as in the range of 0.001-10 μM; the final concentration of the solvent dimethyl sulfoxide was 0.5%). The cells were incubated for 4 days in the presence of test substances. Cell proliferation was determined by staining the cells with crystal violet: the cells were fixed by adding 20 μl/measuring point of an 11% glutaric aldehyde solution for 15 minutes at room temperature. After three washing cycles of the fixed cells with water, the plates were dried at room temperature. The cells were stained by adding 100 μl/measuring point of a 0.1% crystal violet solution (pH 3.0). After three washing cycles of the stained cells with water, the plates were dried at room temperature. The dye was dissolved by adding 100 μl/measuring point of a 10% acetic acid solution. The extinction was determined by photometry at a wavelength of 595 nm. The change of cell number, in percent, was calculated by normalization of the measured values to the extinction values of the zero-point plate (=0%) and the extinction of the untreated (0 μm) cells (=100%). The IC50 values (inhibitory concentration at 50% of maximal effect) were determined by means of a 4 parameter fit.

The test system of the next test is HeLa-MaTu-ADR cells. Kind of test: Proliferation assay HeLa-MaTu-ADR (Method 3). The class given is cell-based, human. The following applies: 4 days, crystal violet, read-out: Inhibition of HeLa-MaTu-ADR cell proliferation IC50. How it is done:
as §1

For a further test, the target named is T1, CDK9/CycT1 (Homo sapiens, UniProt P50750).
T1 construct: Recombinant full-length His-tagged human CDK9 and CycT1; His; purchased Invitrogen PV4131; host or cells: insect cells
Nature of the test: CDK9/CycT1 high ATP kinase assay (Method 1b, TR-FRET). The class given is biochemical. Particulars: 2 mM ATP; for Selectivity high ATP CDK9 over high ATP CDK2: IC50 (high ATP CDK2)/IC50 (high ATP CDK9): Methods 1b. and 2b. How it is done: 1b. CDK9/CycT1 High ATP Kinase Assay
CDK9/CycT1-Inhibitory Activity of Compounds of the Present Invention at a High ATP Concentration after Preincubation of Enzyme and Test Compounds was Quantified Employing the CDK9/CycT1 TR-FRET Assay as Described in the Following Paragraphs.
Recombinant full-length His-tagged human CDK9 and CycT1, expressed in insect cells and purified by Ni-NTA affinity chromatography, were purchase from Invitrogen (Cat. No PV4131). As substrate for the kinase reaction biotinylated peptide biotin-Ttds-YISPLKSPYKISEG (C-terminus in amid form) was used which can be purchased e.g. form the company JERINI peptide technologies (Berlin, Germany). For the assay 50 nl of a 100 fold concentrated solution of the test compound in DMSO was pipetted into a black low volume 384 well microtiter plate (Greiner Bio-One, Frickenhausen, Germany), 2 μl of a solution of CDK9/CycT1 in aqueous assay buffer [50 mM Tris/HCl pH 8.0, 10 mM MgCl2, 1.0 mM dithiothreitol, 0.1 mM sodium ortho-vanadate, 0.01% (v/v) Nonidet-P40 (Sigma)] were added and the mixture was incubated for 15 min at 22° C. to allow pre-binding of the test compounds to the enzyme before the start of the kinase reaction. Then the kinase reaction was started by the addition of 3 μl of a solution of adenosine-tri-phosphate (ATP, 3.3 mM=>final conc. in the 5 μl assay volume is 2 mM) and substrate (1.67 μM=>final conc. in the 5 μl assay volume is 1 μM) in assay buffer and the resulting mixture was incubated for a reaction time of 25 min at 22° C. The concentration of CDK9/CycT1 was adjusted depending of the activity of the enzyme lot and was chosen appropriate to have the assay in the linear range, typical concentrations were in the range of 0.5 μg/mL. The reaction was stopped by the addition of 5 μl of a solution of TR-FRET detection reagents (0.2 μM streptavidine-XL665 [Cisbio Bioassays, Codolet, France] and 1 nM anti-RB(pSer807/pSer811)-antibody from BD Pharmingen [#558389] and 1.2 nM LANCE EU-W1024 labeled anti-mouse IgG antibody [Perkin-Elmer, product no. AD0077]) in an aqueous EDTA-solution (100 mM EDTA, 0.2% (w/v) bovine serum albumin in 100 mM HEPES/NaOH pH 7.0).
The resulting mixture was incubated 1 h at 22° C. to allow the formation of complex between the phosphorylated biotinylated peptide and the detection reagents. Subsequently the amount of phosphorylated substrate was evaluated by measurement of the resonance energy transfer from the Eu-chelate to the streptavidine-XL. Therefore, the fluorescence emissions at 620 nm and 665 nm after excitation at 350 nm was measured in a HTRF reader, e.g. a Rubystar (BMG Labtechnologies, Offenburg, Germany) or a Viewlux (Perkin-Elmer). The ratio of the emissions at 665 nm and at […] was taken as the measure for the amount of phosphorylated substrate. The data were normalised (enzyme reaction without inhibitor=0% inhibition, all other assay components but no enzyme=100% inhibition).
For orientation: Time-resolved FRET reads energy transfer from a long-lived donor to a nearby acceptor.

pIC50: −log10 of the molar value. Where two headings read alike, the source gives them in different places.

T1 sequence (P50750 whole entry): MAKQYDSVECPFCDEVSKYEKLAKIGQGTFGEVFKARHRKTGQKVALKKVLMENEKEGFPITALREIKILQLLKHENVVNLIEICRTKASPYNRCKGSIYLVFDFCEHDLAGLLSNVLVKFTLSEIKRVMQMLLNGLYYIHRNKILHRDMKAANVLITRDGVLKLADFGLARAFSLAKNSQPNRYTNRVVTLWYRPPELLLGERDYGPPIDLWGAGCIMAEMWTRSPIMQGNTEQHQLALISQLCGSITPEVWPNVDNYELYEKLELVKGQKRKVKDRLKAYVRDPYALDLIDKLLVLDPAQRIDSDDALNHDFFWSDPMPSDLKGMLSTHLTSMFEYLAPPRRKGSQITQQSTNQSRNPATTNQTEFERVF
T1 sequence (O60563 whole entry partner): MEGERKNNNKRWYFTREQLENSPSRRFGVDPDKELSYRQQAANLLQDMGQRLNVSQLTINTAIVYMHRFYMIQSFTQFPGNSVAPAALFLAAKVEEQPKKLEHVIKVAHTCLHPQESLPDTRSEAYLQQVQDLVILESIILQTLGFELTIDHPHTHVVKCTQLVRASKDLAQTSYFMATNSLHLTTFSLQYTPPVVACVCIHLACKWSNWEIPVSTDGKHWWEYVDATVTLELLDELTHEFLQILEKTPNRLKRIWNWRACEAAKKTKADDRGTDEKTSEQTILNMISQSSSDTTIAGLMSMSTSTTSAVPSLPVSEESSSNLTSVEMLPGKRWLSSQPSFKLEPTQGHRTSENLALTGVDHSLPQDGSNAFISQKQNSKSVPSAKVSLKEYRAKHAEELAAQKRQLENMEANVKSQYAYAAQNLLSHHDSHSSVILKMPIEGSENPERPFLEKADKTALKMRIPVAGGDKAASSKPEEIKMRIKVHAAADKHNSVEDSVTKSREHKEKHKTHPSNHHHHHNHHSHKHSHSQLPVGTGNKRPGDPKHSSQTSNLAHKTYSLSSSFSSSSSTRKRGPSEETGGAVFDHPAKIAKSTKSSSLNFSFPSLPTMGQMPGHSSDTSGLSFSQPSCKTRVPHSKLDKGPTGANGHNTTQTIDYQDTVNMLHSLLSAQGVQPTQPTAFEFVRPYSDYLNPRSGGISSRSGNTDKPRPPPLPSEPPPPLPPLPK

Take `CS(=N)(=O)Cc1cccc(Nc2ncc(F)c(-c3ccc(F)c4ccoc34)n2)c1` (racemic) [Example 4, (rac)-5-Fluoro-4-(4-fluoro-1-benzofuran-7-yl)-N-{3-[(S-methylsulfonimidoyl)-methyl]phenyl}-pyrimidin-2-amine]: the pIC50 in the test on A2780 cells (Homo sapiens, A2780, 96 h) is 7.28; in the test with HeLa-MaTu-ADR cells (Homo sapiens, 96 h) it was 6.84; on CDK9/CycT1, 7.66. Also, the “Selectivity high ATP CDK9 over high ATP CDK2: IC50 (high ATP CDK2)/IC50 (high ATP CDK9)” value (shortened to “Selectivity high ATP CDK9”) at CDK9/CycT1 amounted to 23.
Consider `CS(=N)(=O)Cc1cc(F)cc(Nc2ncc(F)c(-c3ccc(F)c4ccoc34)n2)c1` (racemic) [Example 10, (rac)-5-Fluoro-4-(4-fluoro-1-benzofuran-7-yl)-N-{3-fluoro-5-[(S-methylsulfonimidoyl)-methyl]-phenyl}-pyrimidin-2-amine], for which, in the test with A2780 cells (Homo sapiens, A2780, 96 h), the pIC50 is 7.43. On CDK9/CycT1, the pIC50 is 8.49 and the “Selectivity high ATP CDK9” value was 563.
Regarding `CS(=O)(Cc1cccc(Nc2ncc(F)c(-c3ccc(F)c4ccoc34)n2)c1)=NC#N` (single isomer, unassigned) [Example 2, [(3-{[5-Fluoro-4-(4-fluoro-1-benzofuran-7-yl)pyrimidin-2-yl]amino}benzyl)(methyl)oxido-λ^6-sulfanylidene]cyanamide], the pIC50 with A2780 cells is 7.26; with HeLa-MaTu-ADR cells, 7.06; against CDK9/CycT1, 8.96. Also, the “Selectivity high ATP CDK9” value at CDK9/CycT1 stood at 321.
Consider `CS(=O)(Cc1cc(F)cc(Nc2ncc(F)c(-c3ccc(F)c4ccoc34)n2)c1)=NC#N` (single isomer, unassigned) [Example 9, [(3-Fluoro-5-{[5-fluoro-4-(4-fluoro-1-benzofuran-7-yl)pyrimidin-2-yl]amino}benzyl)(methyl)-oxido-λ^6-sulfanylidene]cyanamide], for which the pIC50 with A2780 cells is 7.72; with HeLa-MaTu-ADR cells, 7.38; at CDK9/CycT1 it was 8.47. On CDK9/CycT1, the “Selectivity high ATP CDK9” value was 656.
Turning to `CS(=N)(=O)Cc1cccc(Nc2ncc(F)c(-c3ccc(F)c4ccoc34)n2)c1` (single isomer, unassigned) [Example 5, 5-Fluoro-4-(4-fluoro-1-benzofuran-7-yl)-N-{3-[(S-methylsulfonimidoyl)-methyl]-phenyl}-pyrimidin-2-amine], the pIC50 is 7.03 in the test with A2780 cells; 6.72 with HeLa-MaTu-ADR cells (Homo sapiens, 96 h); 8.25 against CDK9/CycT1. The “Selectivity high ATP CDK9” value on CDK9/CycT1 came out at 143.
With `CS(=O)(Cc1cc(Nc2ncc(F)c(-c3ccc(F)c4ccoc34)n2)cc(S(F)(F)(F)(F)F)c1)=NC#N` (racemic) [Example 17, (rac)-{[3-{[5-fluoro-4-(4-fluoro-1-benzofuran-7-yl)pyrimidin-2-yl]amino}-5-(pentafluoro-λ^6-sulfanyl)benzyl](methyl)oxido-λ^6-sulfanylidene}cyanamide], the pIC50 was 7.01 in the test on A2780 cells (Homo sapiens, A2780, 96 h); 7.01 in the test on HeLa-MaTu-ADR cells (Homo sapiens, 96 h); 8.13 at CDK9/CycT1. Moreover, on CDK9/CycT1, the “Selectivity high ATP CDK9” value is reported as 197.
Turning to `Cc1cc(CS(C)(=O)=NC#N)cc(Nc2ncc(F)c(-c3ccc(F)c4ccoc34)n2)c1` (racemic) [Example 13, (rac)-[(3-{[5-Fluoro-4-(4-fluoro-1-benzofuran-7-yl)pyrimidin-2-yl]amino}-5-methylbenzyl)-(methyl)oxido-λ^6-sulfanylidene]cyanamide], the pIC50 in the test on A2780 cells (Homo sapiens, A2780, 96 h) was 7.47; with HeLa-MaTu-ADR cells (Homo sapiens, 96 h) it was 7.43; on CDK9/CycT1, 9.06. Also, the “Selectivity high ATP CDK9” value at CDK9/CycT1 worked out at 1364.
As for `CS(=N)(=O)Cc1cc(F)cc(Nc2ncc(F)c(-c3ccc(F)c4ccoc34)n2)c1` (single isomer, unassigned) [Example 11, 5-Fluoro-4-(4-fluoro-1-benzofuran-7-yl)-N-{3-fluoro-5-[(S-methylsulfonimidoyl)-methyl]-phenyl}-pyrimidin-2-amine], the pIC50 in the test with A2780 cells (Homo sapiens, A2780, 96 h) was 7.49; in the test with HeLa-MaTu-ADR cells, 6.70; at CDK9/CycT1 it was 8.43. In addition, the “Selectivity high ATP CDK9” value on CDK9/CycT1 was determined as 247.
For the compound `CS(=N)(=O)Cc1cccc(Nc2ncc(F)c(-c3ccc(F)c4ccoc34)n2)c1` (single isomer, unassigned) [Example 6, 5-Fluoro-4-(4-fluoro-1-benzofuran-7-yl)-N-{3-[(S-methylsulfonimidoyl)-methyl]-phenyl}-pyrimidin-2-amine], the values for the pIC50 in the test with A2780 cells, with HeLa-MaTu-ADR cells and against CDK9/CycT1 were 7.42, 7.02 and 8.49, respectively. Further, on CDK9/CycT1, the “Selectivity high ATP CDK9” value was 313.
In the case of `Cc1cc(CS(C)(=O)=NC#N)cc(Nc2ncc(F)c(-c3ccc(F)c4ccoc34)n2)c1` (single isomer, unassigned) [Example 14, [(3-{[5-Fluoro-4-(4-fluoro-1-benzofuran-7-yl)pyrimidin-2-yl]amino}-5-methylbenzyl)-(methyl)oxido-λ^6-sulfanylidene]cyanamide], the pIC50 in the test on A2780 cells (Homo sapiens, A2780, 96 h) is 7.35; in the test with HeLa-MaTu-ADR cells (Homo sapiens, 96 h) it was 7.24; against CDK9/CycT1, 8.66. On CDK9/CycT1, the “Selectivity high ATP CDK9” value was found to be 385.
On to `Cc1cc(CS(C)(=O)=NC#N)cc(Nc2ncc(F)c(-c3ccc(F)c4ccoc34)n2)c1` (single isomer, unassigned) [Example 15, [(3-{[5-Fluoro-4-(4-fluoro-1-benzofuran-7-yl)pyrimidin-2-yl]amino}-5-methylbenzyl)-(methyl)oxido-λ^6-sulfanylidene]cyanamide], for which the pIC50 in the test with A2780 cells is 7.20; with HeLa-MaTu-ADR cells it was 6.96; at CDK9/CycT1, 8.80. In addition, on CDK9/CycT1, the “Selectivity high ATP CDK9” value amounted to 522.
In the case of `CS(=N)(=O)Cc1cc(F)cc(Nc2ncc(F)c(-c3ccc(F)c4ccoc34)n2)c1` (single isomer, unassigned) [Example 12, 5-Fluoro-4-(4-fluoro-1-benzofuran-7-yl)-N-{3-fluoro-5-[(S-methylsulfonimidoyl)-methyl]-phenyl}-pyrimidin-2-amine], the pIC50 was 7.46 in the test with A2780 cells, 7.06 in the test with HeLa-MaTu-ADR cells and 9.00 at CDK9/CycT1. The “Selectivity high ATP CDK9” value on CDK9/CycT1 is 1263.

The values are drawn from US9884849B2, “Fluorinated benzofuranyl-pyrimidine derivatives containing a sulfoximine group” (Bayer Pharma Aktiengesellschaft, priority 2014, dated 2018).
